Measurements as given in PMC10571995, “Near-Infrared Imaging of Colonic Adenomas In Vivo Using Orthotopic Human Organoids for Early Cancer Detection” (Cancers, 2023).
Residues, ends and D or L forms follow the SMILES beside them. *: point of attachment. X2 = CC1(C)C(/C=C/C2=C(Oc3ccc(S(=O)(=O)O)cc3)C(=C/C=C3/N(CCCCCC(=O)NCCN4C(=O)CC(*)C4=O)c4ccc(S(=O)(=O)O)cc4C3(C)C)/CCC2)=[N+](CCCCS(=O)(=O)[O-])c2ccc(S(=O)(=O)O)cc21; X1 = CC1(C)C(=CC=C2CCCC(C=CC3=[N+](CCCCS(=O)(=O)[O-])c4ccc(S(=O)(=O)O)cc4C3(C)C)=C2Oc2ccc(S(=O)(=O)O)cc2)N(CCCCCC(=O)NCCN2C(=O)CC(*)C2=O)c2ccc(S(=O)(=O)O)cc21

Columns and labels:
cMet [1] = target: T1, cMet (Homo sapiens, UniProt P08581); test: Peptide biodistribution, ex vivo NIR fluorescence of resected organs and colonoids (Pearl Trilogy); assay type: in vivo; conditions: NSG mice, 200 μM, 200 μL i.v., 1 hour post-injection, ex vivo λex 785 / λem 820 nm, mean ± SD
T1 construct: Human colonoids provide clinically relevant levels of target expression; endogenous in cells; host or cells: Patient-derived human colonoids (cMet-high adenoma, cMet-low adenoma, normal), either cultured or implanted orthotopically in NSG mouse colon
T1 sequence (P08581 25-1390): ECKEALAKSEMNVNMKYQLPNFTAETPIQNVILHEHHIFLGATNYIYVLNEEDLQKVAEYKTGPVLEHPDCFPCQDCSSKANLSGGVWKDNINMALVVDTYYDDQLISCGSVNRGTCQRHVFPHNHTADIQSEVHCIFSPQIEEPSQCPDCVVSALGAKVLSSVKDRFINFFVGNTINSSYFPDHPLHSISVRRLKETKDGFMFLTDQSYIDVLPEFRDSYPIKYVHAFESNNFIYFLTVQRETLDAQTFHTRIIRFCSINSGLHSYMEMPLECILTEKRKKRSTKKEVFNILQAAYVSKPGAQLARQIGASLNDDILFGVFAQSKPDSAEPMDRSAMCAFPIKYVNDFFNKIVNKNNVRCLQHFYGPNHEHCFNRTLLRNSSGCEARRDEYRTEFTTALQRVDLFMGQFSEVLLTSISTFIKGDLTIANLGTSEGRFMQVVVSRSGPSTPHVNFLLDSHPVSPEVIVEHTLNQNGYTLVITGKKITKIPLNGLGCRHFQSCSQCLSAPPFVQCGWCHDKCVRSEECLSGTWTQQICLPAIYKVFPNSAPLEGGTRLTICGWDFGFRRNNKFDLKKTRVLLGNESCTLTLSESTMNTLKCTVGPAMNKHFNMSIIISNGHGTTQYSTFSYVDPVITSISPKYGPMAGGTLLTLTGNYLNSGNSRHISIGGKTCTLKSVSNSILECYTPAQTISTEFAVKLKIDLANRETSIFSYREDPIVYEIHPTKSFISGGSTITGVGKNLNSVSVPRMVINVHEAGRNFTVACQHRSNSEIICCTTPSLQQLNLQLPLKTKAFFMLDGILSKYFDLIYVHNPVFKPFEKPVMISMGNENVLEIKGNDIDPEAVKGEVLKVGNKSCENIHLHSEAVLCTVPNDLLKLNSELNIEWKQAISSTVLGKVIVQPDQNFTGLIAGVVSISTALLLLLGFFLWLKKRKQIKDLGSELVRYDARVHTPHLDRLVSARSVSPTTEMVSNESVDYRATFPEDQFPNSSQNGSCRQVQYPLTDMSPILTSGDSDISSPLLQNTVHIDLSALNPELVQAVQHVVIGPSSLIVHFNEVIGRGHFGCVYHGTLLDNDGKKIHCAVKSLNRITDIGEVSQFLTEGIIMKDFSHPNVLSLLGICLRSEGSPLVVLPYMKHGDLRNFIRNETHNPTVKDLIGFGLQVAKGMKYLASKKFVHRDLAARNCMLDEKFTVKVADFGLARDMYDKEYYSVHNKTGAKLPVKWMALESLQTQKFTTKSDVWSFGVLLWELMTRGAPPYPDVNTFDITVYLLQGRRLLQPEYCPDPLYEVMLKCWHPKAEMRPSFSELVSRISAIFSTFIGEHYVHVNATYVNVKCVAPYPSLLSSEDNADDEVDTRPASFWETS
Procedure: Peptides (200 μM, 200 μL) were injected intravenously in NSG mice ~3 weeks after orthotopic implantation of the patient-derived colonoids. The mice were euthanized at 1 h post-injection. Major organs were resected and imaged using the Pearl Trilogy (LI-COR Biosciences) with excitation at λex = 785 nm and emission at λem = 820 nm to measure the peptide biodistribution. Fluorescence intensities were quantified from each whole tumor or organ using Image Studio 5.5.4 software (LI-COR Biosciences).

cMet [2] = target: T1, cMet; test: In vivo NIR fluorescence endoscopy of patient-derived colonoids implanted orthotopically in NSG mouse colon; conditions: NSG mice, 1 h post-injection, n = 6 mice
Procedure: Colonoids were harvested and treated, as described previously. Colonoids were resuspended in engraftment medium: DPBS, 5% Matrigel, 10 µM Y27632. Prior to colonoid implantation, 7–12-week-old NSG (NOD.Cg-Prkdc^scidIl2rg^tm1Wjl/SzJ, Jackson laboratory, #005557) mice were treated with 2.5% dextran sulfate sodium (DSS) for 5 days and supplied with regular water for another day. Anesthesia was induced and maintained via a nose cone with inhaled isoflurane mixed with oxygen at concentrations of 2–4% at a flow rate of 0.5 L/min. A total of ~2.5–5 × 10^5 cell aggregates in 200 μL were injected intrarectally. The rectum was closed immediately using tissue adhesive (Santa Cruz Biotechnology, Dallas, TX, USA; #SC361931) to promote retention of the implanted colonoids. Colonoid growth was monitored weekly by small animal endoscopy with white light illumination. Imaging was performed after the implanted adenomas were clearly visible.
Mice were fasted for 4–6 h prior to in vivo imaging. Anesthesia was induced and maintained using inhaled isoflurane mixed with oxygen at concentrations of 2–4% and a flow rate of 0.5 L/min via a nose cone. The peptides were injected intravenously using a concentration of 200 μM diluted in 200 μL of PBS. A rigid small animal endoscope (Karl Storz Veterinary Endoscopy, Goleta, CA, USA) was modified to deliver NIR excitation at λex = 785 nm. This instrument was inserted into the mouse rectum at 1 h post-injection to collect in vivo fluorescence images. After 3 days to allow for target peptide clearance, the scrambled (control) peptide was administered systemically and imaged similarly. A total of n = 3 independent regions of interest (ROI) with dimensions of 20 × 20 μm^2 were identified randomly from the implanted area (target) and from adjacent normal colonic mucosa (background). The mean fluorescence intensities were used to calculate target-to-background (T/B) ratios.

colonic adenomas = test: In vivo NIR fluorescence endoscopy of spontaneous colonic adenomas in CPC;Apc mice (pharmacokinetics, T/B ratio); set-up: species or system mouse
Procedure: CPC;Apc mice have been genetically engineered to sporadically delete an APC gene regulated by a Cre promoter (CDX2P-9.5NLS-Cre) to spontaneously form either flat or polypoid adenomas in the distal colon.
The IRDye800-labeled target peptide (200 μM, 200 μL) was injected intravenously in Cpc;Apc mice, and fluorescence images were collected at 0, 0.5, 1, 2, 4, 6, 10, 24, 48 h post-injection using the small animal endoscope. The IRDye800-labeled scrambled (control) peptide was administered and imaged the same way 3 days after. The adjacent nontumor tissue region with an equal area of the tumor region was used for background. The time point with the highest target-to-background (T/B) ratio was selected as peak uptake.

[3] = Serum stability by analytical RP-HPLC; assay type: in vitro ADME; conditions: CPC;Apc mouse serum 194 μL, 30 μM peptide, 37 °C, 0, 0.5, 1, 2, 4, 8, 24 h, acetonitrile precipitation, RP-HPLC area under the peak, R^2 = 0.99; read-out: Half-life T1/2 in mouse serum (converted)
Procedure: Peptide stability was evaluated by incubating 6 μL of 1 mM peptide in PBS at 37 °C, resulting in a final concentration of 30 μM in 194 μL of serum obtained from a CPC;Apc mouse. Samples were precipitated by adding a double volume of acetonitrile and centrifuging for 10 min at 4 °C. RP-HPLC was performed at 0, 0.5, 1, 2, 4, 8, and 24 h. The relative peptide concentrations were determined by measuring the area under the peak (Waters, Breeze 2). The coefficient of determination R^2 was determined using Graphpad Prism 8 software (GraphPad Software, Boston, MA, USA).

cMet [4] = target: T1, cMet; test: Ex vivo immunofluorescence of excised NSG mouse colon with implanted colonoids, human-to-mouse (h/m) ratio; assay type: binding; conditions: excised NSG colon sections, peptide 5 μM 10 min RT, antibody 1:100, mean ± SD, n = 6 colonoids
Procedure: Tissue sections were deparaffinized, and antigen retrieval was performed as described previously. Sections were blocked with goat serum for 30 min at RT followed by overnight incubation with 1:100 dilution of monoclonal anti-cMet antibody (Abcam; #EP1454Y) and undiluted human-specific anti-cytokeratin (CAM 5.2, BD Biosciences, Franklin Lakes, NJ, USA; #345779) at 4 °C. Thereafter, 1:500 AF488-labeled goat anti-rabbit secondary antibody (Life Technologies; #A-11029) and 1:500 AF568-labeled goat anti-mouse secondary antibody (Abcam, #ab175473) were administered. After washing with PBST, the slides were stained with the IRDye800-labeled peptides at a concentration of 5 μM for 10 min at RT. The tissue sections were then washed with PBST and mounted using a Prolong Gold reagent containing DAPI (Invitrogen; #P36931). NIR fluorescence images were collected using an inverted confocal microscope (Leica; Stellaris 5). The fluorescence intensities were quantified using custom MATLAB R2022a, and regions of saturated intensities were avoided.

[5] = Peptide safety: necropsy histology (H&E), blood hematology and chemistry; assay type: in vivo, mouse; conditions: CPC;Apc mice, 200 μM, 200 μL i.v., 48 h post-injection
Procedure: CPC;Apc mice were euthanized at 48 hours post-injection with QQT* -IRDye800 (200 μM, 200 μL). Vital organs were excised, sectioned, and evaluated by routine histology (H&E) to evaluate for signs of acute toxicity. Whole blood was collected retro-orbitally using a capillary tube and submitted for evaluation of hematology and chemistry.

[6] = 200 μM in 200 μL i.v., mean ± SD
[7] = 200 μM, 200 μL i.v., images at 0-48 h
[8] = spontaneous adenomas, 1 hour after i.v. administration, mean ± SD

Compound | Uptake (quantified fluorescence) by cMet^high adenoma colonoid (cMet [1]) | Uptake (quantified fluorescence) by cMet^low adenoma colonoid (cMet [1]) | Quantified fluorescence intensity (T/B ratio) in vivo, cMet^high adenoma (cMet [2]; 200 μM in 200 μL i.v., endoscope λex 785 nm, mean ± SD) | Quantified fluorescence intensity (T/B ratio) in vivo, cMet^low adenoma (cMet [2]; [6]) | Quantified fluorescence intensity (T/B ratio) in vivo, normal colonoid (cMet [2]; [6]) | Fold increase QQT*-IRDye800 versus TLQ*-IRDye800, cMet^high adenoma (cMet [2]) | Peak T/B ratio (peak uptake by the adenoma) (colonic adenomas; 200 μM, 200 μL i.v., at 1 h post-injection, mean ± SD, n = 6 mice) | Time of peak uptake (peak T/B ratio) post-injection (colonic adenomas; [7]) | Time to clearance of signal (return to baseline) (colonic adenomas; [7]) | T/B ratio, flat lesions (colonic adenomas; [8]) | T/B ratio, grossly visible adenomas (colonic adenomas; [8]) | T/B ratio, small adenomas (colonic adenomas; [8]) | half-life at 30 μM [3] | Fluorescence intensity human-to-mouse (h/m) ratio, cMet^high adenoma colonoid (cMet [4]) | Fluorescence intensity human-to-mouse (h/m) ratio, cMet^low adenoma (cMet [4]) | Fluorescence intensity human-to-mouse (h/m) ratio, normal colonoid (cMet [4]) | Uptake (quantified fluorescence) by normal human colonoid (cMet [1]) | Acute toxicity in animal necropsy, histology (H&E) of vital organs [5] | Whole blood hematology and chemistry ([5]; n = 6 mice)
CC(C)C[C@H](NC(=O)[C@@H](N)[C@@H](C)O)C(=O)N[C@@H](CCC(N)=O)C(=O)N[C@@H](Cc1c[nH]c2ccccc12)C(=O)N[C@@H](CC(N)=O)C(=O)N[C@@H](CCC(N)=O)C(=O)N[C@@H](CO)C(=O)NCC(=O)NCC(=O)NCC(=O)N[C@@H](CO)C(=O)N[C@@H](CSC1CC(=O)N(CCNC(=O)CCCCCN2/C(=C/C=C3\CCCC(/C=C/C4=[N+](CCCCS(=O)(=O)[O-])c5ccc(S(=O)(=O)O)cc5C4(C)C)=C3Oc3ccc(S(=O)(=O)O)cc3)C(C)(C)c3cc(S(=O)(=O)O)ccc32)C1=O)C(N)=O (stereo partly drawn) [TLQ*-IRDye800, reference compound] (H-TLQWNQSGGGSC(X2)-NH2) | 0.29±0.098 | 0.25±0.06 |  |  |  |  |  |  |  |  |  |  |  |  |  |  |  |  | 
CC(C)C[C@H](NC(=O)[C@H](CO)NC(=O)[C@H](Cc1c[nH]c2ccccc12)NC(=O)[C@H](CC(N)=O)NC(=O)[C@@H](NC(=O)[C@H](CCC(N)=O)NC(=O)[C@@H](N)CCC(N)=O)[C@@H](C)O)C(=O)NCC(=O)NCC(=O)NCC(=O)N[C@@H](CO)C(=O)N[C@@H](CSC1CC(=O)N(CCNC(=O)CCCCCN2C(=CC=C3CCCC(C=CC4=[N+](CCCCS(=O)(=O)[O-])c5ccc(S(=O)(=O)O)cc5C4(C)C)=C3Oc3ccc(S(=O)(=O)O)cc3)C(C)(C)c3cc(S(=O)(=O)O)ccc32)C1=O)C(N)=O (stereo partly drawn) [QQT*-IRDye800] (H-QQTNWSLGGGSC(X1)-NH2; N-terminus and C-terminus assumed) | 1.24±0.16 | 0.23±0.08 | 2.35 ± 0.35 | 1.19 ± 0.12 | 1.22 ± 0.18 | 1.8 fold | 2.2 ± 0.4 | 1 h | ~ 24 h | 2.17±0.30 | 1.91±0.28 | 2.23±0.43 | 3.6 h | 7.68 ± 1.23 | 0.87 ± 0.31 | 1.19 ± 0.39 | 0.18±0.04 | No signs of acute toxicity | No significant abnormalities
